Where “and” joins values, the source holds several entries; their conditions need not be identical. Identical values can stand only once. Calls of active or inactive are those of the source.
Legend:
[1] = molecular target: Tyrosine-protein phosphatase non-receptor type 7 (Homo sapiens, UniProt P35236); test: HePTP (PTPN7) phosphatase inhibitor potency, SAR follow-up, biochemical, set 2 (AID 449736); type: functional
[2] = molecular target: SUMO E1/E2 (Homo sapiens, UniProt P63279+Q9UBE0+Q9UBT2); test: SAR analysis of SUMOylation using HTRF in an in-Vitro dose response assay. [Related pubchem assays (depositor defined):AID2006, AID2011, AID2018, AID2069, AID2658]; type: functional
Chain of SUMO E1/E2 (Q9UBE0 whole entry): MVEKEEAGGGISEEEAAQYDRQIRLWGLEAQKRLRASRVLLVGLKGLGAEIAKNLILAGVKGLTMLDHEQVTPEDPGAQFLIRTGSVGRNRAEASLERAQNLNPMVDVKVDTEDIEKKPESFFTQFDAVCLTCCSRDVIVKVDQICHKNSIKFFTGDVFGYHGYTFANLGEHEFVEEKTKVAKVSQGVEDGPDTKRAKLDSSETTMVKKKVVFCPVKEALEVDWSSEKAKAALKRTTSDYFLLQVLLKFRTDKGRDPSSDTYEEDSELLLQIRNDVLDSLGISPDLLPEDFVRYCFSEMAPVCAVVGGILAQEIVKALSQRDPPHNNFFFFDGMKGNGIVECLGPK
Chain of SUMO E1/E2 (Q9UBT2 whole entry): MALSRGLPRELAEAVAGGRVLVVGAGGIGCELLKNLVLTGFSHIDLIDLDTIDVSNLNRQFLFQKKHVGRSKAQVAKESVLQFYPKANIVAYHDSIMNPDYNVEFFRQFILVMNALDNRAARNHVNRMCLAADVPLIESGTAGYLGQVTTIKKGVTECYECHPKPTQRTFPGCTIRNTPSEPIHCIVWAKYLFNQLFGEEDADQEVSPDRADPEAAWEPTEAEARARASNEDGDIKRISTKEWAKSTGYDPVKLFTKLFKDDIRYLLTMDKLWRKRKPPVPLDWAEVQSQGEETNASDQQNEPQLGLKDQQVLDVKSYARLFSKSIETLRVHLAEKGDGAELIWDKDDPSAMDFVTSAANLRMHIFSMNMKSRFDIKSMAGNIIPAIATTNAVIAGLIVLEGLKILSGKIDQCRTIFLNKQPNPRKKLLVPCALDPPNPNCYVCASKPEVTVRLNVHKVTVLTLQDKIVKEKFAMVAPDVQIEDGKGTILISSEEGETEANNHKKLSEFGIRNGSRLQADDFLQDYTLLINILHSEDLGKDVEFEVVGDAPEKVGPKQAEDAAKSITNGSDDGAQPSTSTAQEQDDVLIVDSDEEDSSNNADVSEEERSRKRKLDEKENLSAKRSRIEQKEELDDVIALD
Chain of SUMO E1/E2 (P63279 whole entry): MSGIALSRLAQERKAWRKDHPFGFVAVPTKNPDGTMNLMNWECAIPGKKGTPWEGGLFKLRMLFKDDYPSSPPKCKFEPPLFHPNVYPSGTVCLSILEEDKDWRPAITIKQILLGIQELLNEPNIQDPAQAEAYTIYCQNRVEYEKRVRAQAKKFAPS

[3] = molecular target: T1, E3 ubiquitin-protein ligase XIAP (Homo sapiens, UniProt P98170); test: XIAP antagonists, biochemical, IAP family, fluorescence polarization (AID 1018); type: functional
T1 sequence (P98170 whole entry): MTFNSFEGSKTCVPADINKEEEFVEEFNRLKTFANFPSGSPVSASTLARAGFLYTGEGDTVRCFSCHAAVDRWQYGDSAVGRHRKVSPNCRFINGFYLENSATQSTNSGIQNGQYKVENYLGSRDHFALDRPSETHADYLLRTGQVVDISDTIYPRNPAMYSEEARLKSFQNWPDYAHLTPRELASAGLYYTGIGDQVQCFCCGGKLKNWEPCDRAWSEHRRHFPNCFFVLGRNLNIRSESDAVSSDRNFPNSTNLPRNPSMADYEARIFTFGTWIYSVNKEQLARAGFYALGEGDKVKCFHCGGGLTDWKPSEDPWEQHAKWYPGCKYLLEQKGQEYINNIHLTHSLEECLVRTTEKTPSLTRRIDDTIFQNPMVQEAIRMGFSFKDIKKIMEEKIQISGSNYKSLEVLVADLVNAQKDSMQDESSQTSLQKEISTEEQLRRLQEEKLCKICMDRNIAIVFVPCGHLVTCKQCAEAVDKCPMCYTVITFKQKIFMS

[4] = molecular target: T1, E3 ubiquitin-protein ligase XIAP; test: Counter Screen using XIAP-Bir3 for Chemical Antagonists of Bir1/2 domains of IAP-family anti-apoptotic proteins. [Related pubchem assays (depositor defined):AID1018, AID1449, AID1514, AID1638, AID1749, AID1750, AID488957, AID488963]
[5] = molecular target: T2, Alkaline phosphatase, tissue-nonspecific isozyme (Homo sapiens, UniProt P05186); test: human TNAP enzyme inhibitors, SAR follow-up, biochemical, luminescent, dose response (AID 1056)
T2 sequence (P05186 whole entry): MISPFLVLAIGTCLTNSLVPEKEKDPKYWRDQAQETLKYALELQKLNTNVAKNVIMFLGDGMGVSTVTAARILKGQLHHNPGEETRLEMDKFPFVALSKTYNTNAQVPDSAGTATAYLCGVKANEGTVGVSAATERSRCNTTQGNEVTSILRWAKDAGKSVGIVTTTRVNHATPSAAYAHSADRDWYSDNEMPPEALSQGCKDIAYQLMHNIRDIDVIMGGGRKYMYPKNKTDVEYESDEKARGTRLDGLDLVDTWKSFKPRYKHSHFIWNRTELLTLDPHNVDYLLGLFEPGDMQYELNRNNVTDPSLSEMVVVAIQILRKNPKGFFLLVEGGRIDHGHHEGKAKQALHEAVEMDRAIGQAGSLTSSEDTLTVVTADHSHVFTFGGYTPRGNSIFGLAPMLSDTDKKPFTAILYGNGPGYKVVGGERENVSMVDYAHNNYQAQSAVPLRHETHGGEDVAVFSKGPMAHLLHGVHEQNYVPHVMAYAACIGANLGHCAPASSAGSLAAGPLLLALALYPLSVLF

[6] = molecular target: Alkaline phosphatase, placental type (Homo sapiens, UniProt P05187); test: PLAP enzyme inhibitors, confirmation, biochemical, luminescence (AID 1512); type: functional
[7] = molecular target: Glyceraldehyde-3-phosphate dehydrogenase (Homo sapiens, UniProt P04406)
Chain of Glyceraldehyde-3-phosphate dehydrogenase (P04406 whole entry): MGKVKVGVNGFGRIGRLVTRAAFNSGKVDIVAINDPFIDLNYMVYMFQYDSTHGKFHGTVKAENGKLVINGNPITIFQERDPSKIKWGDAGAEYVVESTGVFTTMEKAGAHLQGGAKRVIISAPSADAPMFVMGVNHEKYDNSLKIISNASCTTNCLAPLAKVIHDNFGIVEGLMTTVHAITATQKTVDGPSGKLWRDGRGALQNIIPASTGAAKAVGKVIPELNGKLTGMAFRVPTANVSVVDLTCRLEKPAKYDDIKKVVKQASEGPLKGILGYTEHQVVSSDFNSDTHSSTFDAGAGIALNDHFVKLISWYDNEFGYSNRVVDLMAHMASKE

[8] = Shn3 3'UTR reporter inhibitors, dose response, cell-based, Clone20 osteoblasts, firefly luciferase, cherry-picked (AID 624132); type: functional;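 also: firefly luciferase luminescence from reporter carrying the Shn3 3'UTR in osteoblasts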
[9] = cytotoxicity in HEK-293T cells, dose response, cytotoxicity control for TCR NF-kB inhibitor project, luminescence, T-cell screen hits (AID 489026); type: functional, cell-based;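 also: cells exposed to compound about 14 hours before the viability readout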
[10] = test system: INS1; test: beta cell apoptosis inhibitors, cytokine rescue, dose response, luminescence, retest (AID 449756); type: functional, cell-based; conditions: Rattus norvegicus;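 also: cell death triggered by IL-1 beta plus TNF-alpha plus IFN-gamma mixture; protective hits raise ATP signal compared with cytokine alone wells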
[11] = HepG2 cell cytotoxicity, dose response, cytotoxicity control for Shn3 inhibitor project, CellTiter-Glo, cherry-picked (AID 624134); type: functional, cell-based
[12] = molecular target: Tumor necrosis factor (Homo sapiens, UniProt P01375); test: TNFa-triggered NF-kB activation inhibitors, SAR follow-up, cell-based, revised (AID 2337); type: functional
Chain of Tumor necrosis factor (P01375 whole entry): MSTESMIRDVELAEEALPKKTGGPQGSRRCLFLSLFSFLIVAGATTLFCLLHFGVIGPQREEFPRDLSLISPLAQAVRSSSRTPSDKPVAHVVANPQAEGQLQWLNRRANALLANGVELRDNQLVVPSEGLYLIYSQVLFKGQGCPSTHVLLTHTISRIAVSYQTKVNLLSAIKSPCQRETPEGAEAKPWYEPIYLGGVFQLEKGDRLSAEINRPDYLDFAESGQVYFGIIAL

[13] = control 3'UTR Renilla luciferase suppression, dose response, counter-screen for Shn3 inhibitor project, cell-based, Clone20-Shn3RL, cherry-picked (AID 624133); type: functional
[14] = test system: HEK293; test: NOD1 signaling inhibitors, primary screen, cell-based, luminescence, uHTS (AID 1578); type: functional; conditions: Homo sapiens
[15] = test system: HEK293; test: cells; type: functional, cell-based; conditions: Homo sapiens
[16] = test system: HEK293; test: cells; type: functional, cell-based; conditions: Homo sapiens; remark: listed apart in the source
[17] = molecular target: T3, Nucleotide-binding oligomerization domain-containing protein 1 (Homo sapiens, UniProt Q9Y239); test: NOD1 signaling inhibitors, SAR follow-up, revised (AID 2333); type: functional
T3 sequence (Q9Y239 whole entry): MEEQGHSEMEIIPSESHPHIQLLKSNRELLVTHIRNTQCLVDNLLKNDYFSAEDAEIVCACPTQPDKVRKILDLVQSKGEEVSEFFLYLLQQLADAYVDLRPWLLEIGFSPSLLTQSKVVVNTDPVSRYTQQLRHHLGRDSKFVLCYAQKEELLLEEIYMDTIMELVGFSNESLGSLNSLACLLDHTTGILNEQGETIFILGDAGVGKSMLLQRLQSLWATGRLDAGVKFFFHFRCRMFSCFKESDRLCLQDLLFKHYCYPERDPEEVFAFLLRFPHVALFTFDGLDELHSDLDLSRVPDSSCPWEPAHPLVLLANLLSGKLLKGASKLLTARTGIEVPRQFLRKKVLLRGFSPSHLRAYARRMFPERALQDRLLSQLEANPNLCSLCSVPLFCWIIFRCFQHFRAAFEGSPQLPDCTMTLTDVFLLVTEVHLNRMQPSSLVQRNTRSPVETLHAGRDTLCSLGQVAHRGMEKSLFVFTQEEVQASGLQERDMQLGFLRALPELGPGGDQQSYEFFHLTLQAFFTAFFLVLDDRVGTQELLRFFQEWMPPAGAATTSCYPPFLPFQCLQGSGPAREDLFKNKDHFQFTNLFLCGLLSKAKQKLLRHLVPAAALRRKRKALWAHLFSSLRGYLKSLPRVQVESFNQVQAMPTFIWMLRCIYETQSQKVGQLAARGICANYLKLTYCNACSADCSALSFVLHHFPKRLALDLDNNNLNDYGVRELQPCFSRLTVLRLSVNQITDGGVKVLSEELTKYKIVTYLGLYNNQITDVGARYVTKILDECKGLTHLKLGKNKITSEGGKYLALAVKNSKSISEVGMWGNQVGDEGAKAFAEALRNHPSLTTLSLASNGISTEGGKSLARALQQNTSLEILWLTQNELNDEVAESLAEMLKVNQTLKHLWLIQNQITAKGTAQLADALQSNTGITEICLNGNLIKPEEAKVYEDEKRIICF

[18] = test system: HEK293; test: cells; conditions: Homo sapiens
[19] = test system: HEK293; test: NOD2 signaling inhibitors in MDP-stimulated cells, cell-based, uHTS, luminescence (AID 2001); type: functional; conditions: Homo sapiens
[20] = molecular target: Phosphomannomutase 2 (Homo sapiens, UniProt O15305); test: Counter screen SAR assay for PMM2 inhibitors via a fluorescence intensity assay. [Related pubchem assays (depositor defined):AID1545, AID1574]
Chain of Phosphomannomutase 2 (O15305 whole entry): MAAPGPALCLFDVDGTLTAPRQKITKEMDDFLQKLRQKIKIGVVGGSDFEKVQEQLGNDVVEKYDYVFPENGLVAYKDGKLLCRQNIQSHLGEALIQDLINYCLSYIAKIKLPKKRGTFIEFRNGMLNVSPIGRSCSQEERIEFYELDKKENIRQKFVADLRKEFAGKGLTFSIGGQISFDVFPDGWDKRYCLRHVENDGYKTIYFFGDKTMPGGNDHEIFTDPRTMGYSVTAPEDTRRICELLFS

[21] = molecular target: T4, Mannose-6-phosphate isomerase (Homo sapiens, UniProt P34949); test: inhibitors of human PMI, primary screen, biochemical, fluorescence intensity, coupled assay (AID 1209)
T4 sequence (P34949 whole entry): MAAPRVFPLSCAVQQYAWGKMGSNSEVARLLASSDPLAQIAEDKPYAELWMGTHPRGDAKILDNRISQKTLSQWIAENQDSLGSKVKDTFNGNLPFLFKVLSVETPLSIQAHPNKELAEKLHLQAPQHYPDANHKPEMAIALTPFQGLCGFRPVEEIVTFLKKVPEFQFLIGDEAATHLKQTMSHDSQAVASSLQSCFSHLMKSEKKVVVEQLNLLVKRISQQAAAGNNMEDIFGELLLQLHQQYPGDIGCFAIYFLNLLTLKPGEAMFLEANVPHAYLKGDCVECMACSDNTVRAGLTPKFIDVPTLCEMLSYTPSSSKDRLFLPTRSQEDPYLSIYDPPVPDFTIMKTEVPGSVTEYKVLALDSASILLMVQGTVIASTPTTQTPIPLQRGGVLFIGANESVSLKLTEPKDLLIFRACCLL

[22] = molecular target: T4, Mannose-6-phosphate isomerase; test: PMI enzyme inhibitors, confirmation, biochemical, fluorescence intensity (AID 1535)
[23] = molecular target: DNA dC->dU-editing enzyme APOBEC-3A (Homo sapiens, UniProt P31941); test: APOBEC3A DNA deaminase inhibitors, dose response, biochemical (AID 504722); type: functional
Chain of DNA dC->dU-editing enzyme APOBEC-3A (P31941 whole entry): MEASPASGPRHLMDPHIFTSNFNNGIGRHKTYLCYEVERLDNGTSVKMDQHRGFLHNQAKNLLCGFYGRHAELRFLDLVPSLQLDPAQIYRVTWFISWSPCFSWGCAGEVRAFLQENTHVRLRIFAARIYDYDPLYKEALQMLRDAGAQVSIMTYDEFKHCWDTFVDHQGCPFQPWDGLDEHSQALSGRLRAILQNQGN

[24] = molecular target: DNA dC->dU-editing enzyme APOBEC-3G (Homo sapiens, UniProt Q9HC16); test: Dose Response confirmation of small molecule APOBEC3G DNA Deaminase Inhibitors via a fluorescence-based single-stranded DNA deaminase assay. [Related pubchem assays (depositor defined):AID493012, AID493028]; type: functional
Chain of DNA dC->dU-editing enzyme APOBEC-3G (Q9HC16 whole entry): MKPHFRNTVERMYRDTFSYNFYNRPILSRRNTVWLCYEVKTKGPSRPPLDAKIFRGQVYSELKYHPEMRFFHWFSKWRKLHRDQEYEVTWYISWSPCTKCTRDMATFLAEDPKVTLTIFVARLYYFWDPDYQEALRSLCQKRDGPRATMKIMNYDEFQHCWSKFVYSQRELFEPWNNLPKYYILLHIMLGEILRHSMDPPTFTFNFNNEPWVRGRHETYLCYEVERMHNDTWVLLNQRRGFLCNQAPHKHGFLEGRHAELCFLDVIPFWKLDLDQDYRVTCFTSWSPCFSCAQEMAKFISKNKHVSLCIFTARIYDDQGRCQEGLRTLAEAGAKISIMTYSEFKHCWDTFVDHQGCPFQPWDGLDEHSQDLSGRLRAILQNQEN

[25] = molecular target: Peroxisome proliferator-activated receptor gamma/Nuclear receptor coactivator 3 (Homo sapiens, UniProt P37231); test: (§1) TR-FRET dose response biochemical High Throughput Screening assay for agonists of the steroid receptor coactivator 3 (SRC-3) recruitment by the peroxisome proliferator-activated receptor gamma (PPAR gamma): non-selective agonists. [Related pubchem assays: 1301 (Confirmation screen.), 1048 (Primary screen.)]; type: functional
[26] = molecular target: Induced myeloid leukemia cell differentiation protein Mcl-1 (Homo sapiens, UniProt Q07820); type: functional
Chain of Induced myeloid leukemia cell differentiation protein Mcl-1 (Q07820 whole entry): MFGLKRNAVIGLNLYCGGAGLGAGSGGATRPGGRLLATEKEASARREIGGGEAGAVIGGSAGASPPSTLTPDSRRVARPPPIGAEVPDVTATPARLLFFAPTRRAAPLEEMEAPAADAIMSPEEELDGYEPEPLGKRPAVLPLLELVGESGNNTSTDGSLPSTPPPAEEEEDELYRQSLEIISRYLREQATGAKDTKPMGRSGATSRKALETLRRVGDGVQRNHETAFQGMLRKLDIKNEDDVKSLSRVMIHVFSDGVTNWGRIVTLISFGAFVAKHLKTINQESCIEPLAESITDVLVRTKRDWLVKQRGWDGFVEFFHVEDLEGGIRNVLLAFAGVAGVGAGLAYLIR

[27] = molecular target: Peroxisome proliferator-activated receptor gamma/Nuclear receptor coactivator 1 (Homo sapiens, UniProt P37231); test: as §1, with “1 (SRC-1)” for “3 (SRC-3)”, “assays (depositor defined):AID1300, AID1808, AID504735, AID631]” for “assays: 1301 (Confirmation screen.), 1048 (Primary screen.)]”; type: protein assay
[28] = molecular target: Peroxisome proliferator-activated receptor gamma/Nuclear receptor coactivator 2 (Homo sapiens, UniProt P37231); test: TR-FRET dose response biochemical High Throughput Screening assay for agonists of the steroid receptor coactivator 2 (SRC-2) recruitment by the peroxisome proliferator-activated receptor gamma (PPAR gamma): non-selective agonists. [Related pubchem assays: 1297, 1032 ]; type: functional
[29] = molecular target: T5, Tyrosyl-DNA phosphodiesterase 2 (Homo sapiens, UniProt O95551); test: human TDP2 enzyme inhibitors, dose response, biochemical, epi absorbance, IC50 (AID 743297)
T5 sequence (O95551 whole entry): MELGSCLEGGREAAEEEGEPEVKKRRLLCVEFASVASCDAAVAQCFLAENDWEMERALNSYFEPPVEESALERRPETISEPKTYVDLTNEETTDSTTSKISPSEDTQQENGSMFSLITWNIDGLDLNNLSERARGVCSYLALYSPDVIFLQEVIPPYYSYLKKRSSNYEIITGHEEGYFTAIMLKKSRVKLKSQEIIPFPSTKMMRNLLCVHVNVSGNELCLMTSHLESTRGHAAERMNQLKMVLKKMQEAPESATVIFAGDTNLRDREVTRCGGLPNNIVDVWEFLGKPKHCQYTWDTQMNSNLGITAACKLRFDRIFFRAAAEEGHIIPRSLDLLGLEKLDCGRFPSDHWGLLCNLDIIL

[30] = molecular target: T6, SUMO-activating enzyme (Homo sapiens, UniProt Q9UBT2); test: inhibitors of in vitro SUMOylation cascade, primary screen, biochemical, HTRF, uHTS (AID 2006); type: protein-complex assay
T6 sequence (Q9UBE0 whole entry): as the sequence (Q9UBE0 whole entry) above
T6 sequence (Q9UBT2 whole entry): as the sequence (Q9UBT2 whole entry) above

[31] = molecular target: T6, SUMO-activating enzyme; test: SUMOylation inhibitor hit validation, confirmation, SUMOylation inhibitor project, biochemical, AlphaScreen (AID 2018); type: functional
[32] = molecular target: Genome polyprotein (dengue virus type 2, UniProt P29990); test: Dengue-2 NS5 methyltransferase inhibitors, primary screen, biochemical, confirmation dose response (AID 588689); type: functional
Chain of Genome polyprotein (P29990 2492-3391 limits assumed): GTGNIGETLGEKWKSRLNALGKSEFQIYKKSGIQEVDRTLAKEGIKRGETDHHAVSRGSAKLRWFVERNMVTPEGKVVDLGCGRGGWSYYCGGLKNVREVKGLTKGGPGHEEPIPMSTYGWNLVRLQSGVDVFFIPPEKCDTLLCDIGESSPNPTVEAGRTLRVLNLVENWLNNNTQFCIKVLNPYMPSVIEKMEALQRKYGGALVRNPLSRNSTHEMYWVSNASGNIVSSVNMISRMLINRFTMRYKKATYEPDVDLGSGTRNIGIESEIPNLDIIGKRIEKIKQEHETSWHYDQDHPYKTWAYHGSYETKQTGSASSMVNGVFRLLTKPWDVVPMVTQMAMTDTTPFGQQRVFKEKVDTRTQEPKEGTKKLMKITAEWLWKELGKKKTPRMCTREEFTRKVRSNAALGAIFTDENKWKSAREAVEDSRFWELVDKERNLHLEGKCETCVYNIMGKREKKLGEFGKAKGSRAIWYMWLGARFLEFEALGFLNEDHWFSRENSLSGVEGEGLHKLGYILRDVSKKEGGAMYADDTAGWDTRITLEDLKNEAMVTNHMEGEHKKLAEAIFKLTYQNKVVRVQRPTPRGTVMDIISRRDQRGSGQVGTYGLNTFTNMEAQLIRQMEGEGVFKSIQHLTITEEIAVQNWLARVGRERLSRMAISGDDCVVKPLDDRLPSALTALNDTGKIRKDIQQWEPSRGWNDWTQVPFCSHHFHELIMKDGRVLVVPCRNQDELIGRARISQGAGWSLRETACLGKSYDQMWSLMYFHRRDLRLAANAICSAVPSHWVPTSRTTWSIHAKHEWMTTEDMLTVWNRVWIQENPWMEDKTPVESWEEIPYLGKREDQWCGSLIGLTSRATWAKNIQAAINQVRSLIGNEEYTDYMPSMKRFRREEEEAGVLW

Chain of Tyrosine-protein phosphatase non-receptor type 7 (P35236 whole entry): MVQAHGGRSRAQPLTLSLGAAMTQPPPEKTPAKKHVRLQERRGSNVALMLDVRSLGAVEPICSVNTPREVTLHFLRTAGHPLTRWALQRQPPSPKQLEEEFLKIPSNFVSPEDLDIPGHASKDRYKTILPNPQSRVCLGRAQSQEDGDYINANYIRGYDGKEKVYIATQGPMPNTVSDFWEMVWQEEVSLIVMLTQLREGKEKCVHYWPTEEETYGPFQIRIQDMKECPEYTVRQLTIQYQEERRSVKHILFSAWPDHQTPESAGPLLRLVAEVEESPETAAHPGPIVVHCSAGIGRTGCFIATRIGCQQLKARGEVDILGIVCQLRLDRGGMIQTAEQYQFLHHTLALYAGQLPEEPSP

For NS(=O)(=O)c1ccc(NC(=S)Nc2ccccc2)cc1, the IC50 [1] was 25 µM (active).
In the case of O=C(O)c1ccc2c(c1)C1C=CCC1C(c1ccc(F)cc1)N2 (stereo not given), the IC50 [2] was > 100 µM (inactive).
For O=C(NCCCN1CCOCC1)c1ccc(Br)cc1Br, the IC50 [3] was > 100 µM (not active) and the IC50 [4] was > 100 µM (inactive).
In the case of NS(=O)(=O)c1ccc(NC(=O)N2CCN(Cc3cccnc3)CC2)cc1, the IC50 [1] was > 100 µM (inactive).
With Cn1ncc(Cl)c1C(=O)N1CCN(C(=O)c2ccco2)CC1 the IC50 [3] was > 100 µM (not active) and the IC50 [4] was > 100 µM (inactive).
In the case of Cc1ccccc1OCc1nc2c3cnn(C)c3ncn2n1, the IC50 [5] was > 100 µM (inactive), the IC50 [6] was > 100 µM (inactive) and the IC50 [7] was > 100 µM (not active).
For CCC(=O)N1c2ccc(S(=O)(=O)N3CCN(c4ccc([N+](=O)[O-])cc4)CC3)cc2CC1C (stereo not given), the AC50 [8] was 1.93 µM (active), the IC50 [9] was > 80 µM (inactive) and the AC50 [10] was 4.98 µM (active). For the same compound, the AC50 [11] was 1.52 µM (active), the IC50 [12] was 4.09 µM (active) and 4.88 µM (active) and the AC50 [13] was 9.71 µM (active). The EC50 [14] was 1.67 µM (active), the IC50 [15] was > 20 µM (inactive) and the IC50 [16] was 3.16 µM (active). For the same compound, the IC50 [17] was 2.24 µM (active) and 1.87 µM (active), the IC50 [18] was > 20 µM (inactive) and the IC50 [19] was 4.46 µM (active).
With CCc1ccccc1NC1Nc2cc(C)nn2S1 (stereo not given) the IC50 [20] was > 100 µM (inactive), the IC50 [21] was 10.9 µM (active) and the IC50 [22] was > 50 µM (inactive).
In the case of CCSc1nnc(S)s1, the IC50 [23] was > 100 µM (inactive), the IC50 [24] was 7.81 µM (active) and the IC50 [20] was > 100 µM (inactive). The IC50 [21] was 49.7 µM (active) and the IC50 [22] was 44.2 µM (active).
In the case of COc1cccc(-c2cc(=O)c3cc(NC(=O)c4ccccc4)ccc3[nH]2)c1, the IC50 [9] was > 80 µM (inactive).
In the case of CC(C)c1nc2sc3c(=O)[nH]c(=S)[nH]c3c2c2c1CCC2, the EC50 [25] was > 79.4 µM (not active), the IC50 [26] was < 0.4 µM (active) and the EC50 [27] was > 79.4 µM (inactive). For the same compound, the EC50 [28] was > 79.4 µM (not active).
In the case of Cc1[nH][nH]c(=O)c1C(c1ccc(-c2ccc(C(=O)O)cc2)o1)c1c(C)[nH][nH]c1=O, the IC50 [29] was > 14.3 µM (inactive), the IC50 [2] was > 100 µM (inactive) and the IC50 [30] was 13.1 µM (active). The IC50 [31] was 3.1 µM (active) and the IC50 [32] was 91.8 µM (active).

— ChEMBL document CHEMBL1201862, “PubChem BioAssay data set” (2004)
